Data on 19 compounds can be found in ChEMBL document CHEMBL5550106, “Recent advances in the exploration of oxazolidinone scaffolds from compound development to antibacterial agents and other bioactivities” (Eur J Med Chem, 2024).

The structures appear in SMILES notation. In brackets after ≈: the same amount, converted by molar mass.

For one experiment, the system named is Haemophilus influenzae. Briefly: Antibacterial activity against Haemophilus influenzae assessed as bacterial growth inhibition measured after 16 to 24 hrs by broth microdilution assay. The format is functional. The following applies: time 16-24 hrs. On the technique in general: Broth dilution looks for growth in wells or tubes with falling amounts of substance.

Experiment [1] has as its system Staphylococcus epidermidis. Briefly: Antibacterial activity against Methicillin-resistant Staphylococcus epidermidis assessed as inhibition of bacterial growth. The format is functional.
Experiment [2] relates to Staphylococcus aureus. The experiment can be described thus: Antibacterial activity against Methicillin-resistant Staphylococcus aureus assessed as inhibition of bacterial growth. The format is functional.
Another experiment concerns the target Coagulation factor X (Homo sapiens, UniProt P00742). Briefly: Inhibition of human factor Xa.
For experiment [3], the system named is Escherichia coli. The experiment can be described thus: Antimicrobial activity against wild type Escherichia coli MG1655 assessed as inhibition of microbial growth. Format: functional.
The subject of experiment [4] is Escherichia coli. The experiment can be described thus: Antibacterial activity against Escherichia coli MG1655 in presence of polymyxin B nonapeptide. Format: functional.
The subject of experiment [5] is Escherichia coli. Briefly: Antibacterial activity against efflux pump-efficient Escherichia coli MG1655 assessed as bacterial growth inhibition. Format: functional.
In experiment [6] the test system is Staphylococcus aureus. Briefly: Antibacterial activity against Staphylococcus aureus assessed as reduction in bacterial growth incubated for 24 hrs by broth microdilution method. The format is functional.
The subject of experiment [7] is Staphylococcus epidermidis. The experiment can be described thus: Antibacterial activity against Methicillin-resistant Staphylococcus epidermidis assessed as bacterial growth inhibition. Format: functional.
For experiment [8], the system named is Staphylococcus aureus. The experiment can be described thus: Antibacterial activity against methicillin-resistant Staphylococcus aureus assessed as reduction in microbial growth by CLSI based broth microdilution method. The format is functional.
Experiment [9] has as its system Staphylococcus aureus. Briefly: Antibacterial activity against Linezolid-resistant Staphylococcus aureus assessed as reduction in bacterial growth. Format: functional.
In experiment [10] the test system is Staphylococcus epidermidis. The experiment can be described thus: Antibacterial activity against Staphylococcus epidermidis assessed as reduction in microbial growth after 24 hrs by CLSI based microdilution method. The format is functional.
For experiment [11], the system named is Staphylococcus epidermidis. The experiment can be described thus: Antibacterial activity against linezolid-resistant Staphylococcus epidermidis assessed as reduction in bacterial growth. The format is functional.
The subject of experiment [12] is Staphylococcus aureus. Briefly: Antibacterial activity against Staphylococcus aureus assessed as reduction in microbial growth by CLSI based broth microdilution method. The format is functional.

Sequence of Coagulation factor X (P00742 41-179 limits assumed): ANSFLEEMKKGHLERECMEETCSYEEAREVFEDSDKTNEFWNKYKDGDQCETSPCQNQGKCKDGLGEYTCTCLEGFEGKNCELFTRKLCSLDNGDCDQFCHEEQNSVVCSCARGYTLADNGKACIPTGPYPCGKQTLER
Sequence of Coagulation factor X (P00742 235-488 limits assumed): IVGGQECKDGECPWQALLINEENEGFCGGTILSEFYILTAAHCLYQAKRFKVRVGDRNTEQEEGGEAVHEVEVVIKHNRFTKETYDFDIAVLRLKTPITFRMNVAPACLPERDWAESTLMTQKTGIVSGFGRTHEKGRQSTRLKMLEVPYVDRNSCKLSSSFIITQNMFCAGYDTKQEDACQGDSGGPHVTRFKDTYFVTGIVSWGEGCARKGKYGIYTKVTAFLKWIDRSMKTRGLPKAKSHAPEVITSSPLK

As to `C[S+]([O-])c1ccc(N2CC(CCl)OC2=O)cc1` (stereo unspecified), the MIC with Haemophilus influenzae was 16 µg/mL (≈ 58.4 µM).

Take `CC(=O)NC[C@H]1CN(c2ccc([S+](C)[O-])cc2)C(=O)O1` (stereo partly specified): the MIC (in experiment [1]; with Staphylococcus aureus [2]) was 1 µg/mL (≈ 3.37 µM) throughout.

Take `O=C(NC[C@@H]1OC(=O)N2c3ccc(N4CCOCC4=O)cc3OC[C@@H]12)c1ccc(Cl)s1`: the IC50 (commonly the concentration that gives 50% inhibition) at Coagulation factor X was determined as 3 nM.

In the case of `O=C(NC[C@@H]1OC(=O)N2c3ccc(N4CCOCC4=O)cc3OC[C@H]12)c1ccc(Cl)s1`, the IC50 on Coagulation factor X came out at 50 nM.

`CC(=O)N(C)c1ccc2c(c1)OC[C@H]1[C@H](CNC(=O)c3ccc(Cl)s3)OC(=O)N21`: inhibition against Coagulation factor X was half-maximal at 2210 nM (IC50).

In turn, `O=C(NC[C@@H]1OC(=O)N2c3ccc(N4CCOC4=O)cc3OC[C@@H]12)c1ccc(Cl)s1` came in with an IC50 on Coagulation factor X of 15700 nM.

In turn, `CS(=O)(=O)c1ccccc1-c1ccc2c(c1)OC[C@H]1[C@H](CNC(=O)c3ccc(Cl)s3)OC(=O)N21` had an IC50 against Coagulation factor X of 30 nM.

As for `O=C(NC[C@@H]1OC(=O)N2c3ccc(N4CCOCC4=O)cc3SC[C@@H]12)c1ccc(Cl)s1`, at Coagulation factor X, half-maximal inhibition (IC50) was put at 2 nM.

The compound `O=C(NC[C@@H]1OC(=O)N2c3ccc(N4CCCCC4=O)cc3SC[C@@H]12)c1ccc(Cl)s1` showed an IC50 at Coagulation factor X of 4 nM.

`O=C(NC[C@@H]1OC(=O)N2c3ccc(N4CCOCC4=O)cc3[S+]([O-])C[C@@H]12)c1ccc(Cl)s1` (stereo partly specified) had an IC50 against Coagulation factor X of 60 nM.

Compound `O=C(NC[C@@H]1OC(=O)N2c3ccc(N4CCOCC4=O)cc3S(=O)(=O)C[C@@H]12)c1ccc(Cl)s1` had an IC50 at Coagulation factor X of 20 nM.

Consider `O=C(NC[C@@H]1OC(=O)N2c3ccc(N4CCOCC4=O)cc3CC[C@@H]12)c1ccc(Cl)s1`, for which the IC50 against Coagulation factor X came out at 4 nM.

Turning to `O=C(NC[C@@H]1OC(=O)N2c3ccc(N4CCCCC4=O)cc3CC[C@@H]12)c1ccc(Cl)s1`, on Coagulation factor X, it took 6 nM to reach half-maximal inhibition (IC50).

Regarding `O=C(NC[C@@H]1OC(=O)N2c3ccc(N4CCOCC4=O)cc3NC[C@@H]12)c1ccc(Cl)s1`, the IC50 against Coagulation factor X stood at 5 nM.

On to `NCc1ncc(-c2ccc(N3C[C@H](CO)OC3=O)cc2F)cc1O`, for which the MIC is 51 µg/mL in the experiment on Escherichia coli [3], 32 µg/mL with Escherichia coli [4], 32 µg/mL (≈ 96 µM) in the experiment with Escherichia coli [5] and 20 µg/mL (≈ 60 µM) with Staphylococcus aureus [6].

In the case of `NCc1cc(F)c(-c2ccc(N3C[C@H](CO)OC3=O)cc2F)cc1O`, the MIC was found to be 64 µg/mL in the experiment with Escherichia coli [3], 32 µg/mL with Escherichia coli [4], 64 µg/mL (≈ 183 µM) in the experiment on Escherichia coli [5] and 32 µg/mL (≈ 91.3 µM) with Staphylococcus aureus [6].

Turning to `COC(=O)C1(C(=O)OC)Cc2cc(-c3ccc(N4C[C@H](CO)OC4=O)cc3F)ccc2N2CCOCC21` (stereo partly specified), the MIC in [7] was 8 µg/mL (≈ 15.5 µM); in the experiment on Staphylococcus aureus [8], 8 µg/mL; in the experiment with Staphylococcus aureus [9] it was greater than 32 µg/mL; in experiment [10], 8 µg/mL; in experiment [11] it was greater than 32 µg/mL; in the experiment with Staphylococcus aureus [12], 16 µg/mL.

For the compound `CC(=O)NC[C@H]1CN(c2ccc(-c3ccc4c(c3)CC3(C(=O)NC(=O)NC3=O)C3CCCCN43)c(F)c2)C(=O)O1` (stereo partly specified), the MIC in experiment [7] was less than 1 µg/mL; in the experiment on Staphylococcus aureus [8], less than 1 µg/mL; in the experiment on Staphylococcus aureus [9], 16 µg/mL (≈ 29.1 µM); in experiment [10] it was 2 µg/mL; in [11], greater than 32 µg/mL; in the experiment on Staphylococcus aureus [12] it was 2 µg/mL.

For `COC(=O)NC[C@H]1CN(c2ccc(-c3ccc4c(c3)CC3(C(=O)NC(=O)NC3=O)C3CCCN43)c(F)c2)C(=O)O1` (stereo partly specified), the MIC in experiment [7] was found to be 2 µg/mL (≈ 3.63 µM); with Staphylococcus aureus [8], 2 µg/mL; with Staphylococcus aureus [9], 32 µg/mL (≈ 58 µM); in experiment [10], 2 µg/mL; in [11], 32 µg/mL (≈ 58 µM); in the experiment with Staphylococcus aureus [12], 2 µg/mL.
